Reference: US9920075B2, “Triazolopyridine and triazolopyrimidine inhibitors of myeloperoxidase” (BRISTOL-MYERS SQUIBB COMPANY, priority 2014, dated 2018)
Like-named read-outs stand apart in the source and are kept apart here.

Molecular target: T1, myeloperoxidase (MPO) (Homo sapiens, UniProt P05164)
T1 sequence (P05164 49-745): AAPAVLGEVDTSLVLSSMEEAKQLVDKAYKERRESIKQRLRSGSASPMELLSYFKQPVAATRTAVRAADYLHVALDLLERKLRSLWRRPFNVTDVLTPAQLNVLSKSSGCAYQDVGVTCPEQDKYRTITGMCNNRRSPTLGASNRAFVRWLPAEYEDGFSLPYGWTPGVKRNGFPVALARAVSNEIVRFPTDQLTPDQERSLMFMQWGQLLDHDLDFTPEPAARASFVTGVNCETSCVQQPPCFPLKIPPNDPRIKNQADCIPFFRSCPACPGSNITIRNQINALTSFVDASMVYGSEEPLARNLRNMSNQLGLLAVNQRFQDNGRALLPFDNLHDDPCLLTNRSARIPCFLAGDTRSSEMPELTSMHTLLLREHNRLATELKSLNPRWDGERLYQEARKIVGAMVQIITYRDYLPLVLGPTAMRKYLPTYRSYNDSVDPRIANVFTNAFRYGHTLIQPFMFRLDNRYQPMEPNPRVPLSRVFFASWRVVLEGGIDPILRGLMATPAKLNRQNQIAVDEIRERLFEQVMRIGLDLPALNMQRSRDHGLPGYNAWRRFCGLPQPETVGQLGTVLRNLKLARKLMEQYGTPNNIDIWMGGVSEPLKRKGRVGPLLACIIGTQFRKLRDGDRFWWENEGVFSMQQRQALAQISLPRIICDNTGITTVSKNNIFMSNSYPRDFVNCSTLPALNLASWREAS
Assay: MPO peroxidation assay (Amplex Red assay)
Format: biochemical
Conditions: MPO peroxidation (Amplex Red), ranges given
Experimental: MPO Peroxidation Assay (Amplex Red Assay)
MPO peroxidation activity was measured in 100 mM KPi (pH 7.4) by utilizing the non-fluorescent reagent Amplex Red (Invitrogen Cat. #A12222) which can be oxidized to the highly fluorescent resorufin. Amplex Red is oxidized by the peroxidase action of MPO to resorufin. […] Enzyme and compound were preincubated for ten minutes at room temperature.
After the ten minute preincubation, 25 μL of an Amplex Red mixture containing 200 μM Amplex Red and 10 mM H2O2 was added to the plate.
IC50 values were calculated by determining the slope of the linear portion of the kinetic trace (180-540 secs), and using that calculated slope to determine % inhibition occurring at each concentration of inhibitor using the following equation:
[formula] where A=minimal Y value (activity level of inhibited sample), B=maximal Y value (activity level of uninhibited sample), C=Log IC50, D=Hill Slope, x=concentration of inhibitor. MPO Chlorination Assay (APF Assay)

[1] = read-out: MPO peroxidation assay IC50 values (binned)

Structure (SMILES)	IC50 [1] [nM]	IC50 (MPO peroxidation assay IC50 values (binned)) [nM]
Nc1cc(OCc2nc(-c3ccc(C4CC4)nc3)ccc2F)c2nn[nH]c2n1 [Example 98, 7-((6′-cyclopropyl-S-fluoro-[2,3′-bipyridin]-6-yl)methoxy)-3H-[1,2,3]triazolo[4,5-b] pyridin-5-amine]	≤ 60	
Cn1ncc2cccc(COc3cc(N)nc4[nH]nnc34)c21 [Example 8, 7-((1-Methyl-1H-indazol-7-yl)methoxy)-3H-[1,2,3]triazolo[4,5-b]pyridin-5-amine]	≤ 60	
Nc1nc(OCc2ccc(Oc3ccccc3)nc2)c2nn[nH]c2n1 [Example 122, 7-((6-phenoxypyridin-3-yl)methoxy)-3H-[1,2,3]triazolo[4,5-d]pyrimidin-5-amine]	60 to 150	
Cn1ccc(-c2ccc(F)c(COc3cc(N)nc4[nH]nnc34)n2)n1 [Example 96, 7-((3-Fluoro-6-(1-methyl-1H-pyrazol-3-yl)pyridin-2-yl)methoxy)-3H-[1,2,3]triazolo[4,5-b]pyridin-5-amine]	≤ 60	
Nc1cc(OCc2cnn(-c3ccccn3)c2)c2nn[nH]c2n1 [Example 30, 7-((1-(Pyridin-2-yl)-1H-pyrazol-4-yl)methoxy)-3H-[1,2,3]triazolo[4,5-b]pyridin-5-amine]	60 to 150	
CCn1nc(C(F)(F)F)cc1COc1cc(N)nc2[nH]nnc12 [Example 19, 7-((1-Ethyl-3-(trifluoromethyl)-1H-pyrazol-5-yl)methoxy)-3H-[1,2,3]triazolo[4,5-b]pyridin-5-amine]	≤ 60	
Cc1nn(CC2CCNC2)nc1COc1cc(N)nc2[nH]nnc12 (centres unmarked) [Example 69, 7-((5-Methyl-2-(pyrrolidin-3-ylmethyl)-2H-1,2,3-triazol-4-yl)methoxy)-3H-[1,2,3]triazolo[4,5-b]pyridin-5-amine]	150 to 1000	
Nc1cc(OCc2ncc(Br)cc2F)c2nn[nH]c2n1 [Example 87, 7-((5-Bromo-3-fluoropyridin-2-yl)methoxy)-3H-[1,2,3]triazolo[4,5-b]pyridin-5-amine]	≤ 60	
Nc1cc(OCc2cccc3c2OC(F)(F)O3)c2nn[nH]c2n1 [Example 3, 7-((2,2-Difluorobenzo[d][1,3]dioxol-4-yl)methoxy)-3H-[1,2,3]triazolo[4,5-b]pyridin-5-amine]	≤ 60	
Cc1nc(-c2ccc(Cl)cc2)sc1COc1cc(N)nc2[nH]nnc12 [Example 49, 7-((2-(4-Chlorophenyl)-4-methylthiazol-5-yl)methoxy)-3H-[1,2,3]triazolo [4,5-b]pyridin-5-amine]	≤ 60	

Further lines, results first:

IC50 [1] [nM]	IC50 (MPO peroxidation assay IC50 values (binned)) [nM]	Structure (SMILES)
≤ 60		N#Cc1ccccc1-c1cc(COc2cc(N)nc3[nH]nnc23)on1 [Example 45, 2-(5-((5-Amino-3H-[1,2,3]triazolo[4,5-b]pyridin-7-yloxy)methyl)isoxazol-3-yl)benzonitrile]
60 to 150		Nc1cc(OCc2cccc(-c3cccc(F)c3)n2)c2nn[nH]c2n1 [Example 5, 7-((6-(3-Fluorophenyl)pyridin-2-yl)methoxy)-3H-[1,2,3]triazolo[4,5-b]pyridin-5-amine]
150 to 1000		Cn1cnc2cccc(COc3cc(N)nc4[nH]nnc34)c21 [Example 36, 7-((1-Methyl-1H-benzo[d]imidazol-7-yl)methoxy)-3H-[1,2,3]triazolo[4,5-b]pyridin-5-amine]
≤ 60		Cc1nn(Cc2ccccc2)nc1COc1cc(N)nc2[nH]nnc12 [Example 66, 7-((2-Benzyl-5-methyl-2H-1,2,3-triazol-4-yl)methoxy)-3H-[1,2,3]triazolo [4,5-b]pyridin-5-amine]
60 to 150		Cc1nc(-c2ccccc2)oc1COc1cc(N)nc2[nH]nnc12 [Example 54, 7-((4-Methyl-2-phenyloxazol-5-yl)methoxy)-3H-[1,2,3]triazolo[4,5-b]pyridin-5-amine]
	60 to 150	Nc1cc(OCc2cn(-c3ccccc3)nn2)c2nn[nH]c2n1 [Example 4, 7-((1-Phenyl-1H-1,2,3-triazol-4-yl)methoxy)-3H-[1,2,3]triazolo[4,5-b]pyridin-5-amine]
150 to 1000		Nc1cc(OCc2cnc(-c3ccccc3)s2)c2nn[nH]c2n1 [Example 26, 7-((2-Phenylthiazol-5-yl)methoxy)-3H-[1,2,3]triazolo[4,5-b]pyridin-5-amine]
